# Measurements reported in US20030026781A1, “Compositions and methods for regulating endogenous inhibitor of ATP synthase, including treatment for diabetes” (MitoKor, priority 1999, published 2003).
# Several values for one entry are separate records, joined by “and”; a condition that tells them apart may be missing. Equal entries are not always repeated. Ends that are not written are not given here.
# Assays:
# purified F1-ATPase = molecular target: T1, purified F1-ATPase (Bos taurus, UniProt P00829+P19483); test: ATP hydrolysis by purified F1-ATPase; assay type: biochemical; conditions: bovine cardiac F1-ATPase; read-out: IC50 for inhibition of ATP hydrolysis by purified F1-ATPase
# T1 construct: F1 ATPase subcomplexes were isolated from bovine cardiac samples; from tissue; host or cells: bovine heart (alkaline submitochondrial particles, chloroform extraction, method of Walker et al. 1995)
# Experimental: (§1) F0-F1 ATPase complexes and F1 ATPase subcomplexes were isolated from bovine cardiac samples essentially according to the method of Walker et al. (Methods in Enzymology 260:163-190, 1995), with the exception that, instead of preparing SMPs (submitochondrial particles) at neutral pH, ASMPs (alkaline submitochondrial particles; see Rouslin and Broge, Anal. Biochem. 222:68-75, 1994) were prepared from bovine heart by sonication in a basic solution. The ASMPs were extracted with chloroform and used to prepare F0-F1 ATPase and F1 ATPase according to the method of Walker et al. (Methods in Enzymology 260:163-190, 1995).
# (§2) One assay for ATPase activity involves measuring ATP hydrolysis according to methods known in the art (Walker et al., Methods in Enzymology 260:163-190, 1995; Rouslin and Broge, Anal. Biochem. 222:68-75, 1994). Such assays can be performed using purified F0-F1 ATPase complexes or F1 ATPase subcomplexes, or using alkaline submitochondrial particles (ASMPs).
# In an initial experiment to validate the reagents and assay system, Aurovertin-B was used as a positive control. This antibiotic binds to and inhibits the activity of bacterial and mitochondrial ATPases (van Raaij et al., Proc. Natl. Acad. Sci. US.A. 93:14 6913-14 6917, 1996). The purified F1-ATPase described in the preceding Example was treated with varying concentrations of Aurovertin-B, and ATP hydrolyis was measured.
# INS-1 cells [1] = test: Mitochondrial DNA content of INS-1 cells by slot blot with COX-I probe; conditions: for effect on mtDNA content: INS-1 cells incubated for seven days with nucleoside analog
# F0-F1-ATPase = molecular target: T2, F0-F1-ATPase (Bos taurus, UniProt P00829+P19483); test: ATP hydrolysis by purified F0-F1-ATPase; assay type: biochemical; conditions: bovine cardiac F0-F1-ATPase
# T2 construct: F0-F1 ATPase complexes and F1 ATPase subcomplexes were isolated from bovine cardiac samples; from tissue; host or cells: bovine heart (from alkaline submitochondrial particles, method of Walker et al. 1995)
# Experimental: as §1, §2
# In like fashion, the two IF1 polypeptide derivatives were tested for their ability to inhibit the purified F1-ATPase and F0-F1-ATPase. The results (FIG. 5) indicate that both synthetic polypeptides inhibited the F1 ATPase. […]
# INS-1 cells [2] = test: Glucose-responsive insulin secretion by INS-1 cells depleted of mtDNA; assay type: cell-based, rat; conditions: cells treated with ddC (10 μM) for over 20 days; any glucose level tested
# Experimental: INS-1 cells, or ρ^0 INS-1 cells generated using ddC as described above, were seeded into 12-well plates containing RPMI media supplemented as described at 0.5×10^6 cells/well and cultured at 37° C., 5% CO2 for 2 days. Cells (0.7×10^6 cells/well were rinsed with glucose-free KRH buffer (134 mM NaCl, 4.7 mM KCl, 1.2 mM KH2PO4, 1.2 mM MgSO4, 1.0 mM CaCl2, 10 mM HEPES, 10 mM NaHCO3, 0.5% BSA), then incubated in the same buffer for 1 hr at 37° C. in a humidified 5% CO2/95% air atmosphere. Fresh KRH buffer containing 0.5 mM isobutylmethyl xanthine and the following secretagogues was added: 5 mM glucose, 10 mM glucose, 20 mM glucose, 5 mM KCl or 20 mM KCl. After an additional 1 hr at 37° C., 5% CO2 the culture supernatants were collected. Insulin concentrations in the supernatants were measured and normalized to cell number using an insulin-specific radioimmunoassay kit (ICN Biochemicals, Irvine, Calif.) according to the manufacturer's instructions.
compound,measurement,setting,value
CC[C@H]1O[C@]2(C)[C@H](OC(C)=O)[C@@]1(C)O[C@@H](/C=C/C=C/C=C/c1oc(=O)cc(OC)c1C)[C@@H]2O [Aurovertin-B],IC50,purified F1-ATPase,0.85 µM
"O=c1[nH]cnc2c1ncn2[C@H]1CC[C@@H](CO)O1 [ddI, 2′3′-dideoxyinosine]",effect on mtDNA content,INS-1 cells [1],decreased mtDNA content in a dose-dependent fashion
FGKREKAEEDRYFREKTREQLAALK [IF1(22-46)],IC50 for inhibition of purified F0-F1-ATPase,F0-F1-ATPase,no effect
LAALKKHHEDEIDHHSK [IF1(42-58)],IC50,F0-F1-ATPase; read-out: IC50 for inhibition of purified F0-F1-ATPase,~0.18 µM and 0.18 µM
Cc1cn([C@H]2C=C[C@@H](CO)O2)c(=O)[nH]c1=O [d4T],effect on mtDNA content,INS-1 cells [1],decreased mtDNA content in a dose-dependent fashion
"Nc1ccn([C@H]2CC[C@@H](CO)O2)c(=O)n1 [ddC, 2′3′-dideoxycytidine]",glucose stimulated insulin secretion,INS-1 cells [2],not observed
same,effect on mtDNA content,INS-1 cells [1],decreased mtDNA content in a dose-dependent fashion
same,mtDNA detection,"INS-1 cells [1]; INS-1 cells incubated with 25 ∥M ddC, after 21 days",undetectable
same,IC50,"INS-1 cells [1]; read-out: IC50 for decrease of mtDNA content, INS-1 cells, seven days",~50 µM
